The nature of data set [1]: MTS-based cell viability assay in LR7 cells. To be noted: mouse, LR7 cells, 48 h, 0–100 μM, read-out: CC50 (MHV block). Details: species or system mouse. How it is done: (§1) LR7, LLC-Mk2 or Vero cells were seeded in 96-well plates and cultured overnight. Next, the medium was changed to a new one supplemented with different concentrations (in triplicate) of analyzed compounds. Following the 2 days (LR7 and Vero) or 4 days (LLC-Mk-2) of incubation, CellTiter 96 AQueous nonradioactive cell proliferation assay (Promega) was performed according to the manufacturer’s instruction. The half-maximal cytotoxic concentration (CC50) was calculated as the concentration of a compound needed to reduce cell viability by 50% using GraphPad Prism software (version 5.01, GraphPad Software, San Diego, CA).

The subject of another data set is LR7 cells. Description: MTS-based cell viability assay in LR7 cells. On the set-up: species or system mouse. The note with it: 50 μM, uninfected LR7 cells. How it is done: as §1
A short description of data set [2]: MTS-based cell viability assay in LLC-Mk2 cells. To be noted: Macaca mulatta, read-out: CC50 (HCoV-NL63 block). How it is done: as §1
Data set [3] is described as follows: MTS-based cell viability assay in Vero cells. The note with it: African green monkey, 96 h per table footnote, read-out: CC50 (SARS-CoV-2 block). How it is done:
as §1

Data set [4] relates to murine hepatitis virus strain A59 (MHV). Briefly: Reduction of MHV cytopathic effect (CPE) in LR7 cells, MTS/PMS readout. The format is cell-based. The note with it: for protection against MHV-induced CPE: 50 μM, MOI 0.01, 24 h; for concentration above which MHV-induced CPE was significantly reduced: MOI 0.01, 24 h p.i. As to the method:
LR7 cells were seeded in a 96-well plate and cultured overnight. Next, the cells were infected with MHV at an MOI value of 0.01 in medium without FBS. Following 1 h of incubation, the medium containing the virus was collected and cells were covered with a medium supplemented with different concentrations (in triplicate) of the analyzed compounds or DMSO. 24 h p.i. cells viability was evaluated by CellTiter 96 AQueous nonradioactive cell proliferation assay (Promega) according to the manufacturer’s instruction.

The test system is the same in data set [5]. Description: MHV titer in medium of infected LR7 cells, plaque assay. To be noted: for IC50: Murine coronavirus, read-out: IC50 (MHV). The format is cell-based. How it is done: LR7 or LLC-Mk2 cells were infected at a MOI of 0.01 with MHV and HCoV-NL63, respectively, and treated with selected compounds at a concentration ranging from 0 to 50 μM. Culture supernatants were collected 1 day (MHV) or 4 days (HCoV-NL63) after infection. Virus titer was determined by plaque assay.
(§2) The half-maximum inhibitory concentration value (IC50) indicating the concentration of compound needed to reduce virus titer by 50% in comparison to the control, was evaluated by GraphPad software (version 5.01, GraphPad Software, San Diego, CA).

Data set [6] relates to human coronavirus strain NL63 (HCoV-NL63). Briefly: HCoV-NL63 N protein expression in LLC-Mk2 cells, Western blot and densitometry. To be noted: for HCoV-NL63 N protein level: 50 μM, MOI 0.01, 4 days p.i., Western blot/densitometry. Type of data set: cell-based. As to the method:
LLC-Mk2 monolayers grown in 24-well plates were infected with HCoV-NL63 at an MOI value of 0.01 for 2 h. Unbound virus was removed, and cells were cultured in medium supplemented with different concentrations of compounds. Four days postinfection, cells were collected and lysed in CellLyticM Cell Lysis Reagent (Sigma). Following the protein separation by SDS-PAGE and transfer to PVDF membranes, proteins were immunoblotted using specific mouse anti-N NL63 Abs (Eurofins, Spain) or rabbit anti-β-catenin Abs (Santa Cruz), followed by antimouse or antirabbit secondary antibodies conjugated with HRP. Proteins were visualized and analyzed by chemiluminescence using the UVITEC Cambridge Alliance MINI HD detection system. The densitometric analysis of cells treated with 50 μM dose of a panel of glycoconjugates was performed based on three biological replicates of N and β-catenin immunoblots. The N protein levels were expressed as a percentage relative to DMSO-treated infected cells, while β-catenin levels were expressed as a percentage relative to noninfected control cells. The data were presented as the ratio of N/β-catenin for each sample, normalized accordingly.

Data set [7] shares this test system. Briefly: HCoV-NL63 titer in medium of infected LLC-Mk2 cells, foci-forming assay. The format is cell-based. To be noted: for IC50: read-out: IC50 (HCoV-NL63); for antiviral efficacy against HCoV-NL63 compared with compound 24: dose-response 0–25 μM. As to the method:
LR7 or LLC-Mk2 cells were infected at a MOI of 0.01 with MHV and HCoV-NL63, respectively, and treated with selected compounds at a concentration ranging from 0 to 50 μM. Culture supernatants were collected 1 day (MHV) or 4 days (HCoV-NL63) after infection. […]
as §2

A further data set relates to SARS-CoV-2. Briefly: SARS-CoV-2 infectivity in supernatants of infected Vero cells, plaque assay. To be noted: for IC50: read-out: IC50 (SARS-CoV-2). The format is cell-based. As to the method: Vero cells were seeded in appropriate plates and allowed to reach an approximately 90% confluence. For infection, 200 μL of viral suspension containing 10^5 pfu (SARS-CoV-2 strain SARS-CoV-2/human/Czech Republic/951/2020) was added to each well and incubated for 2 h at 37 °C to allow virus adsorption. After the incubation, the viral medium was removed, and the wells were washed gently with phosphate-buffered saline (PBS). Test compounds were prepared in serial dilutions to final concentrations of 50, 25, 12.5, 6.25, 3.125, and 0 μM in the medium (DMEM containing 2% FBS). The compounds were added in quadruplicate to the infected cells. The plates were then incubated for 48 h at 37 °C. Following the 48 h treatment period, the supernatants were removed, and plaque assays in Vero E6 cells were performed to assess viral titers. Cells were fixed and stained 4 days after infection to visualize plaques, as described previously.
as §2

The test system of data set [8] is SC-VLP entry into HEK-hACE2 cells. Briefly: SARS-CoV-2 VLP (SC-VLP) internalization assay in HEK-hACE2 cells, luciferase. The format is cell-based. To be noted: 12.5 μM during SC-VLP production.
Another data set has as its system HCoV-NL63 RNA synthesis. Briefly: HCoV-NL63 RNA level in infected LLC-Mk2 cells, RT-PCR. The format is cell-based, human coronavirus NL63. To be noted: MOI 0.01, 96 h p.i. How it is done: LR7 or LLC-Mk2 were cultured in 12-well plate overnight. Next, LR7 cells were infected with MHV at an MOI value of 1 for 1 h or LLC-Mk2 cells were infected with HCoV-NL63 at an MOI value of 0.01 for 2 h. Following removal of unbound virus, cells were cultured with medium supplemented with different concentrations of selected compounds. 8 h p.i. (MHV) or 96 h p.i. (HCoV-NL63) cells were collected and total RNA was isolated by CoV RNA kit (A&A Biotechnology, Poland) according to the manufacturer’s instruction. To evaluate levels of viral RNA in infected cells Qiagen One-Step RT-PCR reaction was performed. Following reverse transcription, the PCR reaction was carried out using primers: F: […], R: […] for amplification of a fragment of HCoV-NL63 genome (position: 26418–26960 bp NC_005831.2) and F: […] and R: […] for amplification of a fragment of MHV genome (position: 30341–30902 bp FJ647225.1). For internal control fragment of β-actin mRNA was reverse transcribed and amplified using primers For: […] and Rev: […].

The subject of the next data set is SARS-CoV-2 replicon. The format is cell-based.
Setting [9] is: LR7, supplementary CSV, decimal comma.
The mark [10] stands for this setting: Severe acute respiratory syndrome coronavirus 2, Vero, supplementary CSV, decimal comma.
Where [11] appears, read: virus titer released from LR7 cells, MOI 0.01, 24 h p.i., plaque assay.
Where [12] appears, read: 96 h, virus titer released from LLC-Mk2 cells, MOI 0.01, 4 days p.i.
The mark [13] stands for this setting: Severe acute respiratory syndrome coronavirus 2, Vero cells, supernatant 48 h after infection, plaque assay.

Entries after “also recorded” stand apart in the source; their conditions may differ. Read-outs that look alike come from different tables or passages of the source. Some results are limits rather than exact numbers.

In the case of `CC(=O)OC[C@H]1O[C@@H](OCc2cn(C[C@H]3O[C@@H](n4ccc(=O)[nH]c4=O)[C@H](O[Si](C)(C)C(C)(C)C)[C@@H]3O[Si](C)(C)C(C)(C)C)nn2)[C@H](OC(C)=O)[C@@H](OC(C)=O)[C@H]1OC(C)=O` [Compound 15, 2′,3′-di-O-tert-Butyldimethylsilyl-5′-deoxy-5′-[4-(2″,3″,4″,6″-tetra-O-acetyl-β-D-galactopyranosyloxymethyl)-1,2-3-triazol-1-yl]-uridine], in [1], the CC50 at 48 h came out at 134 µM. In addition, in the data set with LR7 cells, the “reduction of cell viability (cytotoxicity in uninfected cells)” value (from here on “reduction of cell viability”) is 10–30%. The CC50 at 96 h in [2] is 49.8 µM; in data set [3] it was over 100 µM. Further, the “protection against MHV-induced CPE” value in data set [4] was “significantly reduced cell death”. Besides, the “concentration above which MHV-induced CPE was significantly reduced” value in data set [4] is given as “above 12.5 μM”. In addition, the IC50 is 7.6 µM in [5] (LR7, 24 h); 7.62 µM in data set [5] (setting [9]); 6.8 µM in data set [7] (LLC-MK2, 96 h); 6.79 µM in data set [7] (LLC-MK2, supplementary CSV, decimal comma); about 27.4 µM with SARS-CoV-2 (Severe acute respiratory syndrome coronavirus 2, Vero, 48 h); 27.4 µM with SARS-CoV-2 (setting [10]). For the same compound, the “HCoV-NL63 N protein level” value in [6] is recorded as “significantly reduced; also recorded: No N protein was detected”. In addition, the “antiviral efficacy against HCoV-NL63 compared with compound 24” value in data set [7] (LLC-Mk2 cells) is listed as “slightly lower activity”. Besides, the “reduction of SC-VLP entry compared with the control” value in [8] is 80%. For the same compound, the “concentration that effectively suppressed HCoV-NL63 RNA synthesis” value in the data set on HCoV-NL63 RNA synthesis was 12.5 µM.
Turning to `CC(=O)OC[C@H]1O[C@@H](SCc2cn(C[C@H]3O[C@@H](n4ccc(=O)[nH]c4=O)[C@H](O[Si](C)(C)C(C)(C)C)[C@@H]3O[Si](C)(C)C(C)(C)C)nn2)[C@H](OC(C)=O)[C@@H](OC(C)=O)[C@@H]1OC(C)=O` [Compound 20, 2′,3′-di-O-tert-Butyldimethylsilyl-5′-deoxy-5′-[4-(2″,3″,4″,6″-tetra-O-acetyl-β-D-glucopyranosylthiomethyl)-1,2-3-triazol-1-yl]-uridine], the CC50 at 48 h in [1] was over 100 µM. The “reduction of cell viability” value in the data set on LR7 cells is reported as “no detectable toxicity”. For the same compound, the CC50 at 96 h in data set [2] and in data set [3] was over 100 µM in each case. Moreover, the “protection against MHV-induced CPE” value in data set [4] was “significantly reduced cell death; also recorded: nearly eliminating CPE”. Moreover, in [4], the “concentration above which MHV-induced CPE was significantly reduced” value is recorded as “above 6.25 μM”. Further, the IC50 in data set [5] (setting [9]) is 11.3 µM; in data set [5] (setting [11]), 11.3 µM; in data set [7] (setting [12]), 5.5 µM; in the data set with SARS-CoV-2 (setting [10]), 16.2 µM; in the data set on SARS-CoV-2 (setting [13]), about 16.2 µM. In data set [6], the “HCoV-NL63 N protein level” value is listed as “significantly reduced; also recorded: reduction of N, as well as β-catenin levels”. The “antiviral efficacy against HCoV-NL63 compared with compound 24” value in data set [7] (LLC-Mk2 cells) was “slightly lower activity”. The “reduction in SARS-CoV-2 viral titers” value in the data set on SARS-CoV-2 (25 μM, Vero cells) was “highest level of activity”. Also, the “concentration that effectively suppressed HCoV-NL63 RNA synthesis” value with HCoV-NL63 RNA synthesis is 6.25 µM. Further, the “inhibition of SARS-CoV-2 replication (replicon)” value in the data set with SARS-CoV-2 replicon is reported as “inhibited SARS-CoV-2 replication; also recorded: effectively suppressed SARS-CoV-2 replication; also recorded: partial”.
`CC(=O)OC[C@H]1O[C@@H](SCn2cc(COC[C@H]3O[C@@H](n4ccc(=O)[nH]c4=O)[C@H](O[Si](C)(C)C(C)(C)C)[C@@H]3O[Si](C)(C)C(C)(C)C)nn2)[C@H](OC(C)=O)[C@@H](OC(C)=O)[C@@H]1OC(C)=O` [Compound 24, 2′,3′-di-O-tert-Butyldimethylsilyl-5′-O-[(1-(2″,3″,4″,6″-tetra-O-acetyl-β-D-glucopyranosylthiomethyl)-1,2-3-triazol-4-yl)-methyl]-uridine]: the CC50 at 48 h in data set [1] was over 100 µM. Also, the “reduction of cell viability” value in the data set with LR7 cells is listed as 10–30%. The CC50 at 96 h in data set [2] was 59.1 µM; in data set [3], over 100 µM. In addition, the “protection against MHV-induced CPE” value in data set [4] is on record as “significantly reduced cell death”. In data set [4], the “concentration above which MHV-induced CPE was significantly reduced” value is reported as “above 12.5 μM”. Besides, the “dose above which no virus was detectable (MHV titer)” value in data set [5] (LR7 cells, 24 h p.i., plaque assay) is reported as “above 6.25 μM”. Moreover, the half-maximal inhibitory concentration (IC50) in data set [5] (setting [11]) is 3.7 µM; in data set [7] (setting [12]) it was 3.1 µM; with SARS-CoV-2 (setting [10]), 18.7 µM; in the data set on SARS-CoV-2 (setting [13]) it was about 18.7 µM. Besides, in [6], the “HCoV-NL63 N protein level” value is recorded as “significantly reduced; also recorded: No N protein was detected”. Moreover, the “dose above which HCoV-NL63 viral protein expression was completely inhibited” value in data set [6] (4 days p.i., immunoblot) was “above 6.25 μM”. In addition, the “dose above which HCoV-NL63 viral release was completely inhibited” value in data set [7] (LLC-Mk2 cells, 4 days p.i., foci-forming assay) is recorded as “above 6.25 μM”. Besides, the “concentration that effectively suppressed HCoV-NL63 RNA synthesis” value with HCoV-NL63 RNA synthesis worked out at 6.25 µM. The “inhibition of SARS-CoV-2 replication (replicon)” value in the data set on SARS-CoV-2 replicon is “inhibited SARS-CoV-2 replication; also recorded: effectively suppressed SARS-CoV-2 replication; also recorded: partial”.

The values are drawn from article PMC12406196, “Anticoronavirus Activity of Uridine Glycoconjugates Containing a 1,2,3-Triazole Moiety” (Journal of Medicinal Chemistry, 2025).
